Reference: patent publication US7741281B2, “Hepatitis C virus inhibitors” (Bristol-Myers Squibb Company, priority 2005, dated 2010)
pEC50, pIC50: −log10 of the molar value.

Columns and labels:
[1] = biological target: T1, HCV NS3/4A protease complex, BMS strain (UniProt P27958, species not given/STRAIN_BMS); experiment: FRET peptide assay to monitor HCV NS3/4A proteolytic activity (BMS strain); type: biochemical, HCV genotype 1a; details: NS3/4A BMS strain; read-out: IC50 Activity Range
T1 construct: for H77 and J4L6S; fused on or other part: Three-lysine solubilizing tail at the end of NS4A, for the H77 and J4L6S constructs; Purification on Ni-NTA and the pET21b vector imply a His tag
T1 sequence (P27958 1027-1657, change not shown, one chain of several): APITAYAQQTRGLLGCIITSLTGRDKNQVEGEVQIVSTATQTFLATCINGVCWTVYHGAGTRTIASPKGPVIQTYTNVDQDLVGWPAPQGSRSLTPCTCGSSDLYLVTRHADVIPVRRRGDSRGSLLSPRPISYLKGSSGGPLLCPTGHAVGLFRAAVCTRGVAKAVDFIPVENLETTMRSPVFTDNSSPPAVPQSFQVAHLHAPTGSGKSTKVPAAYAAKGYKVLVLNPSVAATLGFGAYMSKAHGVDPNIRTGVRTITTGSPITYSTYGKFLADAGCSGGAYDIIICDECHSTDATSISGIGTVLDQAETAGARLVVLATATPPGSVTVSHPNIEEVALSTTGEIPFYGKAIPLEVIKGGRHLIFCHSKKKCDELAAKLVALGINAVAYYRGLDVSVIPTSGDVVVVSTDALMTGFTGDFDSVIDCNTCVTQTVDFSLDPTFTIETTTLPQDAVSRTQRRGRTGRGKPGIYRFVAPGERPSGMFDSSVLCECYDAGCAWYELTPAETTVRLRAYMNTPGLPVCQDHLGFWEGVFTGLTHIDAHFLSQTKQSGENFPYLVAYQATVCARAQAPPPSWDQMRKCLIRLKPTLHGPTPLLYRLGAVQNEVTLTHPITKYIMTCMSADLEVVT
From the text: HCV NS3 protease complexes, derived from the BMS strain, H77 strain or J4L6S strain, were generated, as described below. These purified recombinant proteins were generated for use in a homogeneous assay (see below) to provide an indication of how effective compounds of the present disclosure would be in inhibiting HCV NS3 proteolytic activity.
Serum from an HCV-infected patient was obtained from Dr. T. Wright, San Francisco Hospital. An engineered full-length cDNA (compliment deoxyribonucleic acid) template of the HCV genome (BMS strain) was constructed from DNA fragments obtained by reverse transcription-PCR (RT-PCR) of serum RNA (ribonucleic acid) and using primers selected on the basis of homology between other genotype 1a strains. From the determination of the entire genome sequence, a genotype 1a was assigned to the HCV isolate according to the classification of Simmonds et al. (See P Simmonds, K A Rose, S Graham, S W Chan, F McOmish, B C Dow, E A Follett, P L Yap and H Marsden, J. Clin. Microbiol., 31(6), 1493-1503 (1993)). […] The infectious clones, H77 (1a genotype) and J4L6S (1b genotype) were obtained from R. Purcell (NIH) and the sequences are published in Genbank (AAB67036, see Yanagi, M., Purcell, R. H., Emerson, S. U. and Bukh, J. Proc. Natl. Acad. Sci. U.S.A. 94(16), 8738-8743 (1997); AF054247, see Yanagi, M., St Claire, M., Shapiro, M., Emerson, S. U., Purcell, R. H. and Bukh, J, Virology 244 (1), 161-172. (1998)).
The H77 and J4L6S strains were used for production of recombinant NS3/4A protease complexes. DNA encoding the recombinant HCV NS3/4A protease complex (amino acids 1027 to 1711) for these strains were manipulated as described by P. Gallinari et al. (see Gallinari P, Paolini C, Brennan D, Nardi C, Steinkuhler C, De Francesco R. Biochemistry. 38(17):5620-32, (1999)). Briefly, a three-lysine solubilizing tail was added at the 3′-end of the NS4A coding region. The cysteine in the P1 position of the NS4A-NS4B cleavage site (amino acid 1711) was changed to a glycine to avoid the proteolytic cleavage of the lysine tag. Furthermore, a cysteine to serine mutation was introduced by PCR at amino acid position 1454 to prevent the autolytic cleavage in the NS3 helicase domain. The variant DNA fragment was cloned in the pET21b bacterial expression vector (Novagen) and the NS3/4A complex was expressed in Escherichia. coli strain BL21 (DE3) (Invitrogen) following the protocol described by P. Gallinari et al. (see Gallinari P, Brennan D, Nardi C, Brunetti M, Tomei L, Steinkuhler C, De Francesco R., J Virol. 72(8):6758-69 (1998)) with modifications. Briefly, the NS3/4A protease complex expression was induced with 0.5 millimolar (mM) Isopropyl β-D-1-thiogalactopyranoside (IPTG) for 22 hours (h) at 20° C. A typical fermentation (1 Liter (L)) yielded approximately 10 grams (g) of wet cell paste. The cells were resuspended in lysis buffer (10 mL/g) consisting of 25 mM N-(2-Hydroxyethyl)Piperazine-N′-(2-Ethane Sulfonic acid) (HEPES), pH 7.5, 20% glycerol, 500 mM Sodium Chloride (NaCl), 0.5% Triton X-100, 1 microgram/milliliter (“μg/mL”) lysozyme, 5 mM Magnesium Chloride (MgCl2), 1 μg/ml DnaseI, 5 mM β-Mercaptoethanol (βME), Protease inhibitor-Ethylenediamine Tetraacetic acid (EDTA) free (Roche), homogenized and incubated for 20 minutes (min) at 4° C. The homogenate was sonicated and clarified by ultra-centrifugation at 235000 g for 1 h at 4° C. Imidazole was added to the supernatant to a final concentration of 15 mM and the pH adjusted to 8.0. The crude protein extract was loaded on a Nickel-Nitrilotriacetic acid (Ni-NTA) column pre-equilibrated with buffer B (25 mM HEPES, pH 8.0, 20% glycerol, 500 mM NaCl, 0.5% Triton X-100, 15 mM imidazole, 5 mM βME). The sample was loaded at a flow rate of 1 mL/min. The column was washed with 15 column volumes of buffer C (same as buffer B except with 0.2% Triton X-100). The protein was eluted with 5 column volumes of buffer D (same as buffer C except with 200 mM Imidazole). […]

[2] = test system: HCV replicon in HUH-7 cells; experiment: HCV replicon FRET assay; type: cell-based, HCV strain 1b; details: Hepatitis C virus, Huh-7; HCV replicon; read-out: EC50 Activity Range
From the text: An HCV replicon whole cell system was established as described by Lohmann V, Korner F, Koch J, Herian U, Theilmann L, Bartenschlager R., Science 285(5424):110-3 (1999). This system enabled us to evaluate the effects of our HCV Protease compounds on HCV RNA replication. Briefly, using the HCV strain 1b sequence described in the Lohmann paper (Assession number: AJ238799), an HCV cDNA was synthesized by Operon Technologies, Inc. (Alameda, Calif.), and the full-length replicon was then assembled in plasmid pGem9zf(+) (Promega, Madison, Wis.) using standard molecular biology techniques. The replicon consists of (i) the HCV 5′ UTR fused to the first 12 amino acids of the capsid protein, (ii) the neomycin phosphotransferase gene (neo), (iii) the IRES from encephalomyocarditis virus (EMCV), and (iv) HCV NS3 to NS5B genes and the HCV 3′ UTR. Plasmid DNAs were linearized with ScaI and RNA transcripts were synthesized in vitro using the T7 MegaScript transcription kit (Ambion, Austin, Tex.) according to manufacturer's directions. In vitro transcripts of the cDNA were transfected into the human hepatoma cell line, HUH-7. […] Resulting cell lines were characterized for positive and negative strand RNA production and protein production over time.
The HCV replicon FRET assay was developed to monitor the inhibitory effects of compounds described in the disclosure on HCV viral replication. HUH-7 cells, constitutively expressing the HCV replicon, were grown in Dulbecco's Modified Eagle Media (DMEM) (Gibco-BRL) containing 10% Fetal calf serum (FCS) (Sigma) and 1 mg/ml G418 (Gibco-BRL). Cells were seeded the night before (1.5×10^4 cells/well) in 96-well tissue-culture sterile plates. Compound and no compound controls were prepared in DMEM containing 4% FCS, 1:100 Penicillin/Streptomysin (Gibco-BRL), 1:100 L-glutamine and 5% DMSO in the dilution plate (0.5% DMSO final concentration in the assay). Compound/DMSO mixes were added to the cells and incubated for 4 days at 37° C. After 4 days, cells were first assessed for cytotoxicity using alamar Blue (Trek Diagnotstic Systems) for a CC50 reading. The toxicity of compound (CC50) was determined by adding 1/10th volume of alamar Blue to the media incubating the cells. After 4 hours, the fluorescence signal from each well was read, with an excitation wavelength at 530 nm and an emission wavelength of 580 nm, using the Cytofluor Series 4000 (Perspective Biosystems). Plates were then rinsed thoroughly with Phosphate-Buffered Saline (PBS) (3 times 150 μl). The cells were lysed with 25 μl of a lysis assay reagent containing an HCV protease substrate (5× cell Luciferase cell culture lysis reagent (Promega #El 53A) diluted to 1× with distilled water, NaCl added to 150 mM final, the FRET peptide substrate (as described for the enzyme assay above) diluted to 10 μM final from a 2 mM stock in 100% DMSO. […]. The plate was then placed into the Cytofluor 4000 instrument which had been set to 340 nm excitation/490 nm emission, automatic mode for 21 cycles and the plate read in a kinetic mode. EC50 determinations were carried out as described for the IC50 determinations.

Compound	pIC50 [1]	pEC50 [2]	melting point
CC(C)(C)OC(=O)N[C@H]1CCCCC/C=C\[C@@H]2C[C@@]2(C(=O)NS(=O)(=O)C2CC2)NC(=O)[C@@H]2C[C@@H](Oc3ccccn3)CN2C1=O [Compound 1]	> 7.00	6.00 to 7.00	–
CC(C)(C)OC(=O)N[C@H]1CCCOC/C=C\[C@@H]2C[C@@]2(C(=O)NS(=O)(=O)C2CC2)NC(=O)[C@@H]2C[C@@H](OC(C)(C)C)CN2C1=O [Compound 6, (1S,4R,6S,14S,18R,7-cis)-18-tert-butoxy-14-tert-butoxycarbonylamino-4-cyclopropanesulfonylaminocarbonyl-2,15-dioxo-3,16-diaza-10-oxatricyclo[14.3.0.0^4,6]nonadec-7-ene]	6.00 to 7.00	< 6.00	–
CC(C)(C)OC(=O)N[C@H]1CCCOC/C=C\[C@@H]2C[C@@]2(C(=O)NS(=O)(=O)C2CC2)NC(=O)[C@@H]2C[C@@H](OCc3ccccc3)CN2C1=O [Compound 5, (1S,4R,6S,14S,18R,7-cis)-18-benzyloxy-14-tert-butoxycarbonylamino-4-cyclopropanesulfonylaminocarbonyl-2,15-dioxo-3,16-diaza-10-oxatricyclo[14.3.0.0^4,6]nonadec-7-ene]	> 7.00	< 6.00	147 to 149 °C
CC(C)(C)OC(=O)N[C@H]1CCCCC/C=C\[C@@H]2C[C@@]2(C(=O)NS(=O)(=O)C2CC2)NC(=O)[C@@H]2C[C@@H](Oc3ccc([N+](=O)[O-])cc3)CN2C1=O [Compound 2]	> 7.00	< 6.00	–
